According to article PMC11945486, “TAS1R2/TAS1R3 Single-Nucleotide Polymorphisms Affect Sweet Taste Receptor Activation by Sweeteners: The SWEET Project” (Nutrients, 2025):

Biological target: T1, human TAS1R2-R838K (subunit alone) (Homo sapiens, UniProt Q8TE23, R838K)
T1 construct: expressed in transfected cells; host or cells: HEK293T stably expressing Gα16gust44
T1 sequence (Q8TE23 20-839 R838K): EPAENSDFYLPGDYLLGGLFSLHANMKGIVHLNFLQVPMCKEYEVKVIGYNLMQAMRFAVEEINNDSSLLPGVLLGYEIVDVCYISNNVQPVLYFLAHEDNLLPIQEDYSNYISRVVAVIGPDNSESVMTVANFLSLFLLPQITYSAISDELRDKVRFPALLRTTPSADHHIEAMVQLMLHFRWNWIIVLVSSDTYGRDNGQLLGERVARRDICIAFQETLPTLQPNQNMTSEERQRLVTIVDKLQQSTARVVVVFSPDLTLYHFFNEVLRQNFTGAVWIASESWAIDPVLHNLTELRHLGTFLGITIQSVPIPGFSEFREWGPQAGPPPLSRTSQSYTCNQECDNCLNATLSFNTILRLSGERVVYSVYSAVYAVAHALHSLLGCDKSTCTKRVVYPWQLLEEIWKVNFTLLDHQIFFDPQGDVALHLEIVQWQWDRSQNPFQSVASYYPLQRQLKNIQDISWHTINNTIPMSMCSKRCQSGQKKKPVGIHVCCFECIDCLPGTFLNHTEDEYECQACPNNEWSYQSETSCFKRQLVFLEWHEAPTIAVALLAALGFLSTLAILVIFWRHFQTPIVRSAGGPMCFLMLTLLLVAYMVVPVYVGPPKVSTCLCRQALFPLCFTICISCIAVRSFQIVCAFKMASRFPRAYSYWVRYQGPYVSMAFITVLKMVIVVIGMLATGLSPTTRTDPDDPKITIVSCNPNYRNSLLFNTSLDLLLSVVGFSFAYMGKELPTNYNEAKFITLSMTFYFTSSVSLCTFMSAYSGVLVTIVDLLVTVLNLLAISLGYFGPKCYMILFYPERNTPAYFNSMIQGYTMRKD
Experiment: Calcium mobilisation assay, TAS1R2-R838K subunit alone
Format: cell-based
Excerpt: The coding sequences for TAS1R2 and TAS1R3 were commercially synthesised, and the human codon was optimised for expression in human cells. The coding sequences of human TAS1R2 and TAS1R3 were subcloned and inserted into the mammalian expression vectors pcDNA6/myc-HisA and pcDNA4/myc-HisA (Invitrogen; Thermo Fisher Scientific; Illkirch, France) between the EcoRI and NotI restriction sites, generating the plasmids pcDNA6-TAS1R2 and pcDNA4-TAS1R3, respectively. To increase protein expression in mammalian cells, an upstream start codon was used, which was a sequence called MAX, corresponding to the QBI SP163 element also described in pcDNA4-HisMax (Invitrogen; Thermo Fisher Scientific; Illkirch, France). To measure the expression level of the receptor by immunohistochemistry, we used the FLAG sequence ([…]) in the C-terminal position, which encodes the FLAG tag epitope. […]
The HEK293T cells were kindly provided by Jay P. Slack (Givaudan Flavors Corporation; Cincinnati, OH, USA). […] The fluorescence intensity was measured for 90 s (excitation 488 nm, emission 510 nm) in an automated fluorometric FlexStation®3 Multi-Mode microplate reader (Molecular Devices; San Jose, CA, USA). […] The Ca^2+ changes were expressed as fractional changes in fluorescent light intensity: ΔF/F = (F − F0)/F0, where F was the fluorescent light intensity at each point, and F0 was the value of emitted fluorescent light prior to stimulus application. To calculate dose–response relationships, the changes in fluorescence upon stimulus application were averaged, mock-subtracted and baseline-corrected. […] The half-maximal effective concentrations (EC50 values) and maximal signal amplitudes were calculated using SigmaPlot software (version 15.0) (Systat Software; San Jose, CA, USA).
For in vitro calcium mobilisation assay performed on hTAS1R2-SNPs, hTAS1R3-SNPs and mTAS1R3-I60T, 6 to 7 concentrations were tested for each sweet compound, plus buffer alone. All concentration–receptor combinations were measured in duplicate, and each experiment was repeated at least 4 times (8 wells/concentration). […]

Structure (SMILES): C=C(C)[C@@H]1CC=C(/C=N/O)CC1 [Perillartine, perillartine]
- EC50: 92.4 ± 19.7 µM
- R1 = Variant EC50/WT EC50: 1.0
- Max ΔF/F0 (maximal signal amplitude): 0.35 ± 0.03
